Converted amounts (≈) assume the structure as drawn. Like-named read-outs stand apart in the source and are kept apart here.

Series [1] deals with M. tuberculosis H37Rv. The series is described as follows: microbe, parasite or virus in culture. It counts as cell-based. To be noted: Mycobacterium tuberculosis, aerobic conditions.
The target of series [2] is human serum albumin (HSA) (Homo sapiens, UniProt P02768). It counts as in vitro ADME. The following applies: human, pH 7.4. How it is done:
Standard physical chemical property determination methods were used. Please see the Supporting Information for details.
Protocol S4. Determination of compounds binding to human serum albumin (HSA).
The determination of compounds binding to human serum albumin (HSA) was carried out by retention time measurements using immobilized HSA HPLC columns obtained from Chiral Technologies Ltd, France. The column dimensions were 50x3 mm. The mobile phase was 50 mM ammonium acetate buffer pH 7.4 and HPLC grade 2-propanol. HPLC Method: flow rate 1.8 ml/min applying 2.5 min 2-propanol gradient up to 30%. From 2.5 min to 4.5 min the 2-propanol concentration in the mobile phase was kept at 30%. From 4.5 min to 4.6 min, the 2-propanol concentration was decreased to 0% and kept like that until the end of the gradient run which was 6 min. A calibration set of compounds was first analyzed for which plasma protein binding data were available: Warfarin, Nizatidine, Bromazepam, Carbamazepine, Budesonide, Nicardipine, Indomethacine, Piroxicam, Naproxen. The calculation of the HSA binding data expressed as %HSA was carried out as described previously.

A short description of series [3]: in vitro. It counts as in vitro ADME, mouse. The following applies: pH 7.4; for Cli mouse: 0.5 µM; for half-life: mouse microsomes, read-out: t1/2 in mouse microsomes. How it is done:
(§1) Protocol S6. Microsomal fraction stability experimental procedure.
(§2) Pooled mouse and human liver microsomes are purchased from Xenotech. Microsomes (final protein concentration 0.5 mg/mL, MgCl2 (final concentration = 5 mM) and test compound (final substrate concentration = 0.5 µM; final DMSO concentration = 0.5%) in 0.1M phosphate buffer pH 7.4 were pre-incubated at 37°C prior to the addition of NADPH (final concentration = 1 mM) to initiate the reaction. The final incubation volume was 600 µL. A control incubation was included for each compound tested where 0.1 M phosphate buffer pH 7.4 is added instead of NADPH (minus NADPH). One control compound was included with each species. All incubations were performed singularly for each test compound. Each compound was incubated for 30 minutes and samples (90 µL) of incubate were taken at 0, 5, 15, 20 and 30 min. The control (minus NADPH) was sampled at 30 min only. The reactions were stopped by the addition of sample to 200 µL Acetonitrile:Methanol 3:1 containing internal standard. The terminated samples were centrifuged at 2.500 rpm for 20 min at 4°C to precipitate the protein.
(§3) Quantitative Analysis: following protein precipitation, the samples were analyzed using specific […]
(§4) Data Analysis: from a plot of ln peak area ratio (compound peak area/internal standard peak area) against time, the gradient of the line was determined. Subsequently, half-life and intrinsic clearance were calculated using the equations below:
(§5) Elimination rate constant (k) = (- gradient)
(§6) Half life (t1/2) (min) = […]
(§7) Intrinsic Clearance (CLint) (mL/min/g protein) = […] where V=Incubation volume mL/g microsomal protein.

Series [4] relates to HepG2 cells. To be noted: human, 48 h.
A short description of series [5]: physchem.
Series [6] in a line: in vitro. The following applies: plasma, pH 7.4.
Series [7] is described as follows: in vitro. To be noted: African green monkey.
A short description of series [8]: in vitro. It is filed as in vitro ADME, human. The following applies: pH 7.4; for Cli human: 0.5 µM; for half-life: human microsomes, read-out: t1/2 in human microsomes. The method, then: as §1, §2, §3, §4, §5, §6, §7

Sequence of human serum albumin (HSA) (P02768 25-609): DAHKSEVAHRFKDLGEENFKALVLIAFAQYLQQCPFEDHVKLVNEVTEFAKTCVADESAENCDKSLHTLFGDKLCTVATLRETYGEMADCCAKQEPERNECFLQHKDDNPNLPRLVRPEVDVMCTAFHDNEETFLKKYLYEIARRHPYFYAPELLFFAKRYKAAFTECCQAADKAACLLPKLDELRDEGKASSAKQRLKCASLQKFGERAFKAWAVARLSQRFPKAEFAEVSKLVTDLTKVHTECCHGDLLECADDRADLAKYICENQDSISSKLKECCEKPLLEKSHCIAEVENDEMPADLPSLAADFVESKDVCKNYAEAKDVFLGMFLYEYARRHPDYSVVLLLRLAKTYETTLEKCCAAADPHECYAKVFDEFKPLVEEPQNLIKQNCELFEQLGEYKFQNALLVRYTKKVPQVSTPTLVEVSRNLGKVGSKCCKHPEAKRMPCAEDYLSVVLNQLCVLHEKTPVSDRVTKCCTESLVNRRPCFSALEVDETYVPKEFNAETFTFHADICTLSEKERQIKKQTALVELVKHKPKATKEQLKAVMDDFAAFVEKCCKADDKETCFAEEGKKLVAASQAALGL

In series [1], `Cc1c(CN2CCN(C)CC2)cc(-c2ccc(Cl)cc2)n1-c1ccc(Cl)cc1` [Compound 1] yielded an MIC of 5 µM (≈ 2.07 µg/mL). For the same molecule, the “HSA (%) binding” value in series [2] is 98.07%. Moreover, in series [3], the Cli mouse stood at 0.7 ± 0.1 mL/min/g. For the same molecule, in series [3], the half-life was more than 30 min. The “Tox50, cytotoxicity in HepG2 cells” value in series [4] turned out to be 7.8 µM. Further, the chromatographic logD in [5] (pH 2) was 0.7; in series [5] (pH 7.4), 4.51; in [5] (pH 10.5), 5.01. This molecule had a fraction unbound at 1 µM in [6] of 0.002.

In series [1], `Cc1ccc(-c2cc(CN3CCSCC3)c(C)n2-c2ccc(F)cc2)cc1` [Compound 2] registered an MIC of 0.16 to 0.2 µM (≈ 0.0609 to 0.0761 µg/mL). In addition, the “HSA (%) binding” value in [2] is given as 97.91%. Also, the Cli mouse in series [3] amounted to 7.2 ± 0.2 mL/min/g. The half-life in series [3] came to 8.2 min. In series [4], the “Tox50, cytotoxicity in HepG2 cells” value turned out to be 24.01 µM. In addition, the CC50 at 72 h in series [7] is 179 µM. In addition, the chromatographic logD in [5] (pH 2) turned out to be 1.31; in series [5] (pH 7.4) it was 4.54; in series [5] (pH 10.5) it was 5.08. The fraction unbound at 1 µM in [6] is less than 0.001.

With `COc1ccc(-c2cc(CN3CCSCC3)c(C)n2-c2ccc(F)cc2)cc1` [Compound 3], the MIC in series [1] lay in the range of 0.16 to 0.2 µM (≈ 0.0634 to 0.0793 µg/mL). In [2], the “HSA (%) binding” value is given as 96.82%. For the same molecule, in series [3], the Cli mouse is 18.76 mL/min/g. In addition, in series [3], the half-life was less than 5 min. This molecule also had a CC50 at 72 h in series [7] of more than 302 µM. The chromatographic logD in series [5] (pH 2) turned out to be 1.07; in [5] (pH 7.4), 3.97; in series [5] (pH 10.5), 4.62. Besides, the fraction unbound at 1 µM in series [6] is 0.004.

`CSc1ccc(-c2cc(CN3CCSCC3)c(C)n2-c2ccc(F)cc2)cc1` [Compound 4] showed an MIC in series [1] of 0.16 to 0.2 µM (≈ 0.066 to 0.0825 µg/mL). Also, the “HSA (%) binding” value in series [2] amounted to 98.04%. In addition, the Cli mouse in [3] was 7.3 ± 0.1 mL/min/g. Moreover, the half-life in series [3] turned out to be 10 min. The CC50 at 72 h in [7] is 15.2 µM. In addition, the figures for the chromatographic logD in series [5] (pH 2), in series [5] (pH 7.4) and in series [5] (pH 10.5) were 1.33, 4.52 and 5.03, respectively. Moreover, the fraction unbound at 1 µM in series [6] was 0.007.

For the molecule `Cc1ccc(-c2cc(CN3CCOCC3)c(C)n2-c2ccc(F)cc2)cc1` [Compound 5, 2-Methyl-3-[(morpholin-4-yl)-methyl]-5-[4-(methyl)phenyl]-1-[4-(fluoro)phenyl]-1H-pyrrole], the melting point was in the range of 133 to 135 °C. Besides, the MIC in series [1] stood at 0.3 µM (≈ 0.109 µg/mL). For the same molecule, the “HSA (%) binding” value in series [2] was 96.72%. In addition, in series [3], the half-life worked out at 20.4 min. In addition, in series [8], the Cli human is less than 0.5 mL/min/g and the half-life is more than 30 min. For the same molecule, in [4], the “Tox50, cytotoxicity in HepG2 cells” value was found to be 20.08 µM. The CC50 at 72 h in [7] was more than 351 µM. This molecule also registered a chromatographic logD in series [5] (pH 2) of 1.12. Besides, in [5] (pH 7.4), the chromatographic logD stood at 3.86. Also, the chromatographic logD in series [5] (pH 10.5) turned out to be 4.26. The molecule further had a fraction unbound at 1 µM in [6] of 0.005.

As for `COc1ccc(-c2cc(CN3CCOCC3)c(C)n2-c2ccc(F)cc2)cc1` [Compound 6, 2-Methyl-3-[(morpholin-4-yl)-methyl]-5-[4-(methoxy)phenyl]-1-[4-(fluoro)phenyl]-1H-pyrrole], the melting point was found to be 169 °C. The molecule further had an MIC in [1] of 0.6 µM (≈ 0.228 µg/mL). Also, the “HSA (%) binding” value in [2] is reported as 95.58%. Also, in series [3], the Cli mouse is 4.7 ± 0.1 mL/min/g and the half-life amounted to 15.9 min. Further, in series [8], the Cli human stood at 0.5 ± 0 mL/min/g and the half-life was more than 30 min. This molecule returned a CC50 at 72 h in series [7] of 58.7 µM. Also, in [5] (pH 2), the chromatographic logD was found to be 0.93. Moreover, the chromatographic logD in series [5] (pH 7.4) is 3.32. The chromatographic logD in series [5] (pH 10.5) was 3.73. For the same molecule, the fraction unbound at 1 µM in series [6] was 0.017.

The molecule `CSc1ccc(-c2cc(CN3CCOCC3)c(C)n2-c2ccc(F)cc2)cc1` [Compound 7, 2-Methyl-3-[(morpholin-4-yl)-methyl]-5-[4-(methylthio)phenyl]-1-[4-(fluoro)phenyl]-1H-pyrrole] came in with a melting point of 134 °C. This molecule also gave an MIC in [1] of 0.6 µM (≈ 0.238 µg/mL). Besides, in series [2], the “HSA (%) binding” value is reported as 97.00%. In series [3], the Cli mouse came out at 7.30 mL/min/g and the half-life stood at 9.27 min. Also, in series [8], the Cli human is on record as 0.56 mL/min/g and the half-life is more than 30 min. In series [4], the “Tox50, cytotoxicity in HepG2 cells” value came to 32.9 µM. This molecule registered a CC50 at 72 h in series [7] of 44.3 µM. This molecule had a chromatographic logD in series [5] (pH 2) of 1.13. This molecule also gave a chromatographic logD in series [5] (pH 7.4) of 3.82. In series [5] (pH 10.5), this molecule gave a chromatographic logD of 4.24. The fraction unbound at 1 µM in [6] is 0.004.

The molecule `CCc1ccc(-c2cc(CN3CCOCC3)c(C)n2-c2ccc(F)cc2)cc1` [Compound 8, 2-Methyl-3-[(morpholin-4-yl)-methyl]-5-[4-(ethyl)phenyl]-1-[4-(fluoro)phenyl]-1H-pyrrole] returned a melting point of 107 °C. Also, in series [1], the MIC is 0.2 µM (≈ 0.0757 µg/mL). For the same molecule, in series [2], the “HSA (%) binding” value is 97.14%. Also, in series [3], the Cli mouse was determined as 5.64 mL/min/g and the half-life was found to be 12.5 min. In [8], the Cli human is given as 1.09 mL/min/g and the half-life is more than 30 min. Also, the “Tox50, cytotoxicity in HepG2 cells” value in [4] is 19.5 µM. The CC50 at 72 h in series [7] turned out to be 18.9 µM. The molecule also showed a chromatographic logD in [5] (pH 2) of 1.26. Moreover, the chromatographic logD in series [5] (pH 7.4) is 4.21. Besides, the chromatographic logD in series [5] (pH 10.5) came out at 4.64. In series [6], the free fraction (fraction unbound) at 1 µM is 0.006.

Regarding `Cc1ccc(-c2cc(CN3CCOCC3)c(C)n2-c2ccc(Cl)cc2)cc1` [Compound 10, 2-Methyl-3-[(morpholin-4-yl)-methyl]-5-[4-(methyl)phenyl]-1-[4-(chloro)phenyl]-1H-pyrrole], the melting point came to 130 °C. Besides, the MIC in series [1] was found to be 0.6 µM (≈ 0.229 µg/mL). The “HSA (%) binding” value in series [2] was determined as 97.69%. Besides, in series [3], the Cli mouse amounted to 2.6 ± 0.1 mL/min/g and the half-life was 25.7 min. In series [8], the Cli human was less than 0.5 mL/min/g and the half-life was more than 30 min. Besides, the “Tox50, cytotoxicity in HepG2 cells” value in series [4] is reported as 25 µM. Moreover, the CC50 at 72 h in [7] is 179 µM. In addition, the chromatographic logD in series [5] (pH 2) stood at 1.3. Further, the chromatographic logD in series [5] (pH 7.4) was 4.4. The molecule also showed a chromatographic logD in [5] (pH 10.5) of 4.78. Besides, the fraction unbound at 1 µM in series [6] is 0.002.

For `CCc1ccc(-c2cc(CN3CCOCC3)c(C)n2-c2ccc(Cl)cc2)cc1` [Compound 11, 2-Methyl-3-[(morpholin-4-yl)-methyl]-5-[4-(ethyl)phenyl]-1-[4-(chloro)phenyl]-1H-pyrrole], the melting point was determined as 134 °C. This molecule also gave an MIC in series [1] of 0.2 µM (≈ 0.079 µg/mL). Moreover, in series [2], the “HSA (%) binding” value is 97.74%. Further, in [3], the Cli mouse is on record as 2.83 mL/min/g and the half-life stood at 25 min. Further, in [8], the Cli human was 0.52 mL/min/g and the half-life was more than 30 min. For the same molecule, in series [4], the “Tox50, cytotoxicity in HepG2 cells” value stood at 8.8 µM. In addition, the CC50 at 72 h in series [7] is more than 256 µM. The molecule further registered a chromatographic logD in series [5] (pH 2) of 1.42. Moreover, the chromatographic logD in series [5] (pH 7.4) came to 4.77. The molecule further yielded a chromatographic logD in series [5] (pH 10.5) of 5.16. Further, the fraction unbound at 1 µM in series [6] is less than 0.001.

As a reminder, the chromatographic logD is lipophilicity estimated from chromatographic retention. By fraction unbound is commonly meant the share of the substance not bound to proteins or other matrix. As a reminder, the melting point is the temperature, or range, at which the solid turns liquid.

These data come from PMC3578785, “Improved BM212 MmpL3 Inhibitor Analogue Shows Efficacy in Acute Murine Model of Tuberculosis Infection” (PLoS ONE, 2013).
